Assay results as given in ChEMBL document CHEMBL4011590, “Structure-activity relationship studies on 3,5-dinitrophenyl tetrazoles as antitubercular agents” (Eur J Med Chem, 2017).
In brackets after ≈: the same amount, converted by molar mass.

Key:
Assay type in all cases: functional
Klebsiella pneumoniae [1] = experiment: Antibacterial activity against Klebsiella pneumoniae HK11750/08 after 48 hrs by broth microdilution method; settings: HK11750/08, 48 h
[2] = tested on: Staphylococcus epidermidis; experiment: Antibacterial activity against Staphylococcus epidermidis HK6966/08 after 24 hrs by broth microdilution method; settings: HK6966/08, 24 h
Aspergillus fumigatus [3] = experiment: Antifungal activity against Aspergillus fumigatus 231 after 24 hrs by broth microdilution method; settings: Aspergillus fumigatus, 231, 24 h
Enterococcus sp. [4] = experiment: Antibacterial activity against Enterococcus sp. HK14365/08 after 24 hrs by broth microdilution method; settings: HK14365/08, 24 h
Trichosporon asahii [5] = experiment: Antifungal activity against Trichosporon asahii 1188 after 48 hrs by broth microdilution method; settings: Trichosporon asahii, 1188, 48 h
Staphylococcus aureus [6] = experiment: Antibacterial activity against methicillin-resistant Staphylococcus aureus HK5996/08 after 24 hrs by broth microdilution method; settings: HK5996/08, 24 h
Trichosporon asahii [7] = experiment: Antifungal activity against Trichosporon asahii 1188 after 24 hrs by broth microdilution method; settings: Trichosporon asahii, 1188, 24 h
Staphylococcus aureus [8] = experiment: Antibacterial activity against Staphylococcus aureus ATCC 6538 after 48 hrs by broth microdilution method; settings: ATCC 6538, 48 h
Lichtheimia corymbifera [9] = experiment: Antifungal activity against Absidia corymbifera 272 after 48 hrs by broth microdilution method; settings: Lichtheimia corymbifera, 272, 48 h
Pseudomonas aeruginosa [10] = experiment: Antibacterial activity against Pseudomonas aeruginosa ATCC 9027 after 24 hrs by broth microdilution method; settings: ATCC 9027, 24 h
[11] = tested on: Mycobacterium tuberculosis; experiment: Antimycobacterial activity against Mycobacterium tuberculosis H37Rv CNCTC My 331/88 after 21 days by micromethod; settings: H37Rv CNCTC My 331/88, 504 h
Pseudomonas aeruginosa [12] = experiment: Antibacterial activity against Pseudomonas aeruginosa ATCC 9027 after 48 hrs by broth microdilution method; settings: ATCC 9027, 48 h
Nakaseomyces glabratus [13] = experiment: Antifungal activity against Candida glabrata 20/I after 48 hrs by broth microdilution method
Klebsiella pneumoniae [14] = experiment: Antibacterial activity against extended spectrum beta-lactamase producing Klebsiella pneumoniae HK14368/08 after 24 hrs by broth microdilution method; settings: HK14368/08, 24 h
Mycobacterium kansasii [15] = experiment: Antimycobacterial activity against Mycobacterium kansasii isolate 6509/96 after 7 days by micromethod; settings: isolate 6509/96, 168 h
Candida albicans [16] = experiment: Antifungal activity against Candida albicans ATCC 44859 after 48 hrs by broth microdilution method; settings: ATCC 44859, 48 h
Klebsiella pneumoniae [17] = experiment: Antibacterial activity against Klebsiella pneumoniae HK11750/08 after 24 hrs by broth microdilution method; settings: HK11750/08, 24 h
Escherichia coli [18] = experiment: Antibacterial activity against Escherichia coli ATCC 8739 after 48 hrs by broth microdilution method; settings: ATCC 8739, 48 h
Escherichia coli [19] = experiment: Antibacterial activity against Escherichia coli ATCC 8739 after 24 hrs by broth microdilution method; settings: ATCC 8739, 24 h
Candida albicans [20] = experiment: Antifungal activity against Candida albicans ATCC 44859 after 24 hrs by broth microdilution method; settings: ATCC 44859, 24 h
Klebsiella pneumoniae [21] = experiment: Antibacterial activity against extended spectrum beta-lactamase producing Klebsiella pneumoniae HK14368/08 after 48 hrs by broth microdilution method; settings: HK14368/08, 48 h
[22] = tested on: Mycobacterium tuberculosis; experiment: Antimycobacterial activity against Mycobacterium tuberculosis H37Rv CNCTC My 331/88 after 14 days by micromethod; settings: H37Rv CNCTC My 331/88, 336 h
Enterococcus sp. [23] = experiment: Antibacterial activity against Enterococcus sp. HK14365/08 after 48 hrs by broth microdilution method; settings: HK14365/08, 48 h
[24] = tested on: Staphylococcus epidermidis; experiment: Antibacterial activity against Staphylococcus epidermidis HK6966/08 after 48 hrs by broth microdilution method; settings: HK6966/08, 48 h
Aspergillus fumigatus [25] = experiment: Antifungal activity against Aspergillus fumigatus 231 after 48 hrs by broth microdilution method; settings: Aspergillus fumigatus, 231, 48 h
Staphylococcus aureus [26] = experiment: Antibacterial activity against Staphylococcus aureus ATCC 6538 after 24 hrs by broth microdilution method; settings: ATCC 6538, 24 h
[27] = tested on: Trichophyton mentagrophytes; experiment: Antifungal activity against Trichophyton mentagrophytes 445 after 72 hrs by broth microdilution method; settings: Trichophyton mentagrophytes, 445, 72 h
Mycobacterium kansasii [28] = experiment: Antimycobacterial activity against Mycobacterium kansasii CNCTC My 235/80 after 7 days by micromethod; settings: CNCTC My 235/80, 168 h
Candida tropicalis [29] = experiment: Antifungal activity against Candida tropicalis 156 after 24 hrs by broth microdilution method; settings: Candida tropicalis, 156, 24 h
Candida tropicalis [30] = experiment: Antifungal activity against Candida tropicalis 156 after 48 hrs by broth microdilution method; settings: Candida tropicalis, 156, 48 h
Mycobacterium kansasii [31] = experiment: Antimycobacterial activity against Mycobacterium kansasii CNCTC My 235/80 after 14 days by micromethod; settings: CNCTC My 235/80, 336 h
Lichtheimia corymbifera [32] = experiment: Antifungal activity against Absidia corymbifera 272 after 24 hrs by broth microdilution method; settings: Lichtheimia corymbifera, 272, 24 h
Mycobacterium kansasii [33] = experiment: Antimycobacterial activity against Mycobacterium kansasii isolate 6509/96 after 21 days by micromethod; settings: isolate 6509/96, 504 h
[34] = tested on: Trichophyton mentagrophytes; experiment: Antifungal activity against Trichophyton mentagrophytes 445 after 120 hrs by broth microdilution method; settings: Trichophyton mentagrophytes, 445, 120 h
Staphylococcus aureus [35] = experiment: Antibacterial activity against methicillin-resistant Staphylococcus aureus HK5996/08 after 48 hrs by broth microdilution method; settings: HK5996/08, 48 h
Mycobacterium kansasii [36] = experiment: Antimycobacterial activity against Mycobacterium kansasii isolate 6509/96 after 14 days by micromethod; settings: isolate 6509/96, 336 h
Pichia kudriavzevii [37] = experiment: Antifungal activity against Candida krusei E28 after 24 hrs by broth microdilution method; settings: E28, 24 h
Nakaseomyces glabratus [38] = experiment: Antifungal activity against Candida glabrata 20/I after 24 hrs by broth microdilution method
Mycobacterium kansasii [39] = experiment: Antimycobacterial activity against Mycobacterium kansasii CNCTC My 235/80 after 21 days by micromethod; settings: CNCTC My 235/80, 504 h
Pichia kudriavzevii [40] = experiment: Antifungal activity against Candida krusei E28 after 48 hrs by broth microdilution method; settings: E28, 48 h

## O=[N+]([O-])c1cc(-c2nnn(CSc3nnnn3-c3ccccc3)n2)cc([N+](=O)[O-])c1
Klebsiella pneumoniae [1]
  MIC: > 125 µM
[2]
  MIC: > 125 µM
Aspergillus fumigatus [3]
  MIC: > 125 µM
Enterococcus sp. [4]
  MIC: > 125 µM
Trichosporon asahii [5]
  MIC: > 125 µM
Staphylococcus aureus [6]
  MIC: > 125 µM
Trichosporon asahii [7]
  MIC: > 125 µM
Staphylococcus aureus [8]
  MIC: > 125 µM
Lichtheimia corymbifera [9]
  MIC: > 125 µM
Pseudomonas aeruginosa [10]
  MIC: > 125 µM
[11]
  MIC99: 0.25 µM (≈ 0.107 µg/mL)
Pseudomonas aeruginosa [12]
  MIC: > 125 µM
Nakaseomyces glabratus [13]
  MIC: > 125 µM
Klebsiella pneumoniae [14]
  MIC: > 125 µM
Mycobacterium kansasii [15]
  MIC99: 0.5 µM (≈ 0.213 µg/mL)
Candida albicans [16]
  MIC: > 125 µM
Klebsiella pneumoniae [17]
  MIC: > 125 µM
Escherichia coli [18]
  MIC: > 125 µM
Escherichia coli [19]
  MIC: > 125 µM
Candida albicans [20]
  MIC: > 125 µM
Klebsiella pneumoniae [21]
  MIC: > 125 µM
[22]
  MIC99: 0.125 µM (≈ 0.0533 µg/mL)
Enterococcus sp. [23]
  MIC: > 125 µM
[24]
  MIC: > 125 µM
Aspergillus fumigatus [25]
  MIC: > 125 µM
Staphylococcus aureus [26]
  MIC: > 125 µM
[27]
  MIC: > 125 µM
Mycobacterium kansasii [28]
  MIC99: 1 µM (≈ 0.426 µg/mL)
Candida tropicalis [29]
  MIC: > 125 µM
Candida tropicalis [30]
  MIC: > 125 µM
Mycobacterium kansasii [31]
  MIC99: 2 µM (≈ 0.853 µg/mL)
Lichtheimia corymbifera [32]
  MIC: > 125 µM
Mycobacterium kansasii [33]
  MIC99: 2 µM (≈ 0.853 µg/mL)
[34]
  MIC: > 125 µM
Staphylococcus aureus [35]
  MIC: > 125 µM
Mycobacterium kansasii [36]
  MIC99: 1 µM (≈ 0.426 µg/mL)
Pichia kudriavzevii [37]
  MIC: > 125 µM
Nakaseomyces glabratus [38]
  MIC: > 125 µM
Mycobacterium kansasii [39]
  MIC99: 4 µM (≈ 1.71 µg/mL)
Pichia kudriavzevii [40]
  MIC: > 125 µM

## OC(Cn1cncn1)(Cn1cncn1)c1ccc(F)cc1F [FLUCONAZOLE]
Aspergillus fumigatus [3]
  MIC: > 500 µM
Trichosporon asahii [7]
  MIC: 210 µM (≈ 64.3 µg/mL)
Candida albicans [20]
  MIC: 0.82 µM (≈ 0.251 µg/mL)
[27]
  MIC: 105 µM (≈ 32.2 µg/mL)
Candida tropicalis [29]
  MIC: 1.6 µM (≈ 0.49 µg/mL)
Lichtheimia corymbifera [32]
  MIC: > 500 µM
Pichia kudriavzevii [37]
  MIC: 105 µM (≈ 32.2 µg/mL)
